According to patent US20240382473A1, “Combination Therapies for Treatment of Myelodysplastic Syndrome” (priority 2019, published 2024):

Key:
[1] = tested on: pRpb1 and MCL1 in primary MDS BMMCs; assay: pRpb1 and MCL1 levels in MDS patient cells after alvocidib; assay type: cell-based, human; conditions: relative to DMSO
Text: It has been shown that alvocidib reduces RNA pol II phosphorylation and MCL-1 expression in vitro. […] Phospho-RNA polymerase (pRpb1) and MCL-1 (MCL1) levels are decreased after alvocidib treatment in MDS patient cells (FIG. 23). Levels are indicated as a percent relative to levels measured for a DMSO treated sample. Numbers in parenthesis represent concentrations in nM for each alvocidib (Alvo) treatment.
Additionally, an assay has been tested in bone marrow mononuclear cells (BMMCs) from AML and MDS patients to examine MCL-1 dependency prior to therapy with alvocidib. Approximately 25% of AML patient BMMCs and 60% of MDS patient BMMCs are MCL-1 dependent. Azacitidine and decitabine increased NOXA expression in AML cell line models. […] Combination studies are currently under investigation to determine whether enhanced anti-cancer activity is observed through pharmacologic downregulation of MCL-1 via CDK9 inhibition by alvocidib and upregulation of the MCL-1 antagonist NOXA after HMA exposure.

[2] = tested on: NOXA and MCL-1 expression in CD34+ MDS BMMNC; assay: Pharmacodynamic marker study, Western blot NOXA/MCL-1 in CD34+ MDS BMMNC; assay type: cell-based, human; conditions: Patient 0219; azacitidine 0.3 or 0.6 μM 24 hours, then alvocidib 0.1 μM 6 hours
Method: A pharmacodynamic maker study was performed for azaditidine and alvocidib using MDS patient-derived BMMNC from Cureline. CD34^+ cells were isolated by CD34 MicroBead Kit (Miltenyi Biotec) and cultured in StemSpan™ SFEM II with StemSpan™ CD34^+ Expansion Supplement (STEMCELL Technologies). […] Protein was extracted using RIPA buffer with protease and phosphatase inhibitor cocktail. Protein expression was assessed by Western blot using NOXA (CST, Cat #14766S), MCL-1(CST, Cat #392245) and β-actin (CST, Cat #4967L) antibodies. Apoptotic activity was assessed by Caspase-Glo® 3/7 assay (Promega).

[3] = tested on: AML patients; assay: NOXA priming of pre-treatment bone marrow versus response to alvocidib in AML patients; assay type: in vivo, human; conditions: patients with pre-treatment bone marrow NOXA priming greater than or equal to 40%
Text: Furthermore, high NOXA Priming (MCL-1 dependence) is predictive of alvocidib sensitivity in AML patients. […] FIG. 16A is a box-plot showing that high NOXA priming (MCL-1 dependence) is predictive of alvocidib sensitivity in acute myeloid leukemia (AML) patients. The box-plot plots NOXA priming in complete remission and no response patient bone marrow samples taken from patients prior to being treated with alvocidib. […] NR=no response). The box-plot plots NOXA priming in complete remission and no response patient bone marrow samples taken from patients prior to being treated with 7+3 chemotherapy.

[4] = tested on: luciferase expressing MV4-11 model; assay: Luciferase expressing MV4-11 AML xenograft model; assay type: in vivo; conditions: alvocidib alone
[5] = clinical; conditions: human, in vivo; for AUC(0-t): 75 mg/m2, AUC(0-27); for Cmax: 75 mg/m2, Cmax; for Tmax: 75 mg/m2, Tmax
Text: Plasma PK analyses for alvocidib and known metabolites, if any, and dose proportionality will be determined on Days 8 and 9 (for patients receiving alvocidib following DEC) or Days 10 and 11 (for patients receiving alvocidib following AZA) of Cycle 1 in all patients enrolled in the study, according to Table 5 or Table 6: […]

[6] = tested on: circulating blasts; conditions: three-day dosing, in the clinic; cited from earlier work
[7] = tested on: CD34+ MDS BMMNC; assay: Caspase-Glo 3/7 apoptotic activity in CD34+ MDS BMMNC (Example 17 efficacy study); assay type: cell-based, human; conditions: azacitidine 100 nM 24 hours, alvocidib 100 nM 24 hours
Method: CD34^+ cells were isolated by CD34 MicroBead Kit (Miltenyi Biotec) and cultured in StemSpan™ SFEM II with StemSpan™ CD34^+ Expansion Supplement (STEMCELL Technologies). […] Apoptotic activity was assessed by Caspase-Glo® 3/7 assay (Promega).

[8] = tested on: THP-1 AML model; assay: THP-1 AML xenograft model; assay type: in vivo; conditions: alvocidib alone
[9] = tested on: RNA pol II phosphorylation and MCL-1 expression in MV-4-11 AML cells; assay: Flow cytometry of RNA pol II phosphorylation and MCL-1 expression in MV-4-11 AML cells; assay type: cell-based; conditions: 24-hour treatment
[10] = tested on: MOLM13 xenograft model; assay: MOLM13 xenograft model, tumor volume and survival; assay type: in vivo; conditions: aggressive daily dosing, tumor bearing mice
Method: FIGS. 31A and 31B show results from sequential dosing of alvocidib and HMAs in a MOLM13 model for MDS/sAML. HMA dosing sensitized AML cells to sequential dosing and improved survival in vivo. Alvocidib, azacytidine, and decitabine activity were assessed in the MOLM13 xenograft model. FIG. 31A is a plot of tumor volume over time and FIG. 31B is a plot of percent survival over time. Mice were dosed with alvocidib, qdx2, and/or an HMA, qdx3 on a weekly basis. Doses are indicated in mg/kg (mpk).
[…] show results from aggressive daily dosing of alvocidib and decitabine in the MOLM13 model. Tumor bearing mice were treated. Doses and schedule are indicated. FIG. 32A plots tumor volume following treatment and FIG. 32B plots body weight following treatment.

[11] = tested on: MCL-1 expression in MV4-11 cells; assay: Western blot of MCL-1 protein in MV4-11 cells treated with alvocidib; assay type: cell-based
Text: FIG. 9 is an illustration of a proposed mechanism by which alvocidib inhibits expression of MCL-1 by inhibiting CDK9.

[12] = tested on: MDS BMMC's; assay: Cell viability following 48 hours treatment (FIGS. 26A/26B; IC50 in MDS BMMC's); assay type: cell-based
Text: Additionally, an assay has been tested in bone marrow mononuclear cells (BMMCs) from AML and MDS patients to examine MCL-1 dependency prior to therapy with alvocidib. […] Combination studies are currently under investigation to determine whether enhanced anti-cancer activity is observed through pharmacologic downregulation of MCL-1 via CDK9 inhibition by alvocidib and upregulation of the MCL-1 antagonist NOXA after HMA exposure.
FIGS. 26A and 26B are scatter plots showing cell viability following 48 hours treatment at indicated concentrations of azacytidine (alone) or alvocidib (alone). FIG. 26A is a plot of cell viability following 48-hour treatment against indicated concentrations of azacitidine. […] FIG. 26B is a plot of cell viability following 48-hour treatment against indicated concentrations of alvocidib.

[13] = tested on: MCL-1 and NOXA expression in MV-4-11 cells; assay: Western blot of NOXA and MCL-1 in MV-4-11 cells, alvocidib and azacytidine; assay type: cell-based; conditions: with azacytidine
Text: FIG. 28A is an overview of an experimental used to evaluate an interaction between alvocidib and azacytidine with regard to MCL-1 and NOXA expression. FIG. 28B is a Western blot showing NOXA and MCL-1 levels in cells treated according to the experiment summarized in FIG. 28A at indicated drug concentrations.

[14] = tested on: OCI AML3 xenograft model; assay: OCI AML3 xenograft model; assay type: in vivo

In the case of `CN1CC[C@H](c2c(O)cc(O)c3c(=O)cc(-c4ccccc4Cl)oc23)[C@H](O)C1` [alvocidib], the “Phospho-RNA polymerase (pRpb1) and MCL-1 (MCL1) levels” value [1] is reported as “decreased”, the “Phospho-RNA polymerase (pRpb1) and MCL-1 (MCL1) levels” value ([1]; listed as Alvocidib) is reported as “dose dependent reduction” and the “NOXA and MCL-1 protein expression (Western blot) versus DMSO” value [2] is reported as “suppressed MCL-1 expression”. The complete recovery rate [3] was 100%, the total flux count [4] was “complete abrogation” and the “decrease of AUC going from cohort 4 to cohort 5” value [5] was 47.6%. The “decrease of Cmax going from cohort 4 to cohort 5” value [5] was 15.4%, the AUC(0-t) [5] was 3410 ng·h/mL and the AUC(0-t) ([5]; Mean) was 4080 ng·h/mL. The Cmax [5] was 868 ng/mL, the Cmax ([5]; Mean) was 924 ng/mL and the half-life ([5]; 75 mg/m2, T1/2) was 8.23 h. For the same compound, the half-life ([5]; 75 mg/m2, T1/2, Mean) was 8 h, the Tmax [5] was 0 h and the Tmax ([5]; Mean) was 0 h. The “average reduction of circulating blasts” value [6] was “greater than 75%”, the “increase of apoptotic activity versus DMSO” value ([7]; Patient 0219) was 31% and the “increase of apoptotic activity versus DMSO” value ([7]; Patient 1115 (high-risk MDS)) was 240%. For the same compound, the TGI [8] was 30.8%, the “inhibition of RNA pol II phosphorylation and MCL-1 expression” value [9] was “dose-dependent” and the “tumor growth inhibition (% TGI)” value [10] was 75.8%. The “MCL-1 protein in response to alvocidib (Western blot)” value ([11]; FIG. 8 left panel) was “dose-dependent decrease”, the “duration of knock-down of MCL-1” value ([11]; MV4-11 cells, 80 nM alvocidib) was “exceeds 96 hours” and the IC50 [12] was ~0.1 µM. For the same compound, the “MCL-1 and NOXA levels (Western blot)” value [13] was “inhibits upregulation of MCL-1 by azacytidine without affecting NOXA induction” and the “tumor growth inhibition (% TGI)” value [14] was 55.0%.
